These results are taken from patent US8241607B2, “Use of fructose-based compounds for the diagnosis of cancer” (priority 2005, dated 2012).

The nature of series [1]: Serum fructose in normal volunteers after two cans of soda (fructose dehydrogenase assay). It is filed as in vivo, human. As to conditions: 3 normal volunteers. As to the method:
FIG. 37 depicts fasting serum fructose and glucose levels in patients with pancreatic cancer and in normal volunteers in accordance with an embodiment of the present invention. (a) Fasting serum fructose and glucose levels in 6 patients with pancreatic cancer on the morning of resection. (b) Serum fructose, and glucose levels (Mean±SEM) in 3 normal volunteers after a 10 h fast, followed by ingestion of two cans of soda, containing 76 g of carbohydrate in the form of high fructose corn syrup (55% fructose, 45% glucose).
The normal circulating concentrations of fructose are unknown. […] Briefly, aliquots (20 μl) of fructose standards (0.1, 0.5, 1, 2, 4, 6, and 8 mM) or unknown serum samples were mixed with 5 μl of a stock solution (125 U/ml) of the enzyme fructose dehydrogenase (Sigma) in 175 μl citric acid (0.05 M) phosphate (0.09 M) buffer (pH 4.5), and 20 μl of 3-(4,5-dimethylthiazol-2yl)-2,5-diphenyltetrazolium bromide (MTT), and phenazine methosulfate (Promega), incubated for 30 minutes, after which absorbance at 570 nm was recorded in a 96-well spectrophotometer. […] As the first analysis, in accordance with institutional review board guidelines, the inventors obtained 32 serum samples randomly selected from anonymous inpatients at Cedars-Sinai Medical Center. The inventors also measured glucose in these same samples using standard glucose oxidase based methods. […]

Series [2] relates to MDA-MB231 cells. As to the kind of experiment: Breast cancer cell proliferation in fructose versus glucose (MTT assay). The class given is cell-based. As to conditions: 5 mM fructose compared to 5 mM glucose, 8-72 h. As for the experimental part: (§1) Estrogen receptor (ER) positive MCF-7, and ER negative MDA-MB231 cells were plated in 5 mM fructose or glucose for times between 8-72 h, and proliferative rates measured using MTT assay. *, p<0.05; **, p<0.01.
(§2) FIG. 5 depicts fructose-mediated increased breast cancer proliferation in accordance with an embodiment of the present invention. ER positive MCF-7, and ER negative MDA-MB231 cells were plated in a range of fructose or glucose concentrations (5-25 mM) for 72 h, after which proliferative rates were measured using an MTT assay. *, p<0.05 for concentrations between 5-25 mM fructose versus glucose.
(§3) Standard media for breast cancer cell culture contain either 5-7 mM (low) and 12-25 mM (high) glucose concentrations. Estrogen receptor (ER) positive MCF-7, and ER negative MDA-MB231 cells were cultured overnight in 2 mM glucose standard DMEM medium containing 10% fetal bovine serum prior to incubation for periods between 8, and 72 hours in standard DMEM medium containing 10% fetal bovine serum, and 5 mM glucose or 5 mM fructose.
(§4) Proliferative rates were then measured in replicate (minimum of 6) aliquot wells of the breast cancer cells grown in glucose, or fructose containing medium. […] In separate experiments, proliferative rates of the MCF-7, and MDA-MB231 breast cancer cells were compared following culture in a range of fructose, and glucose concentrations (2-25 mM) for 72 hours.
On the technique in general: Tetrazolium dyes change colour on reduction, which living cells bring about.

For series [3], the system named is MCF-7 cells. The series is described as above. As to conditions: 5 mM fructose compared to 5 mM glucose, 8-72 h. The class given is cell-based. As to the method: as §1, §2, §3, §4
The test system of series [4] is fructokinase-1 (FK-1) mRNA. As to the kind of experiment: RT-PCR of fructokinase-1 mRNA in MCF-7 cells. It is filed as cell-based. To be noted: MCF-7 grown in 5 mM fructose vs 2 mM and 5 mM glucose. As for the experimental part: FIG. 7 depicts fructokinase-1 expression in accordance with an embodiment of the present invention. Breast cancer cells (MCF-7) express Fructokinase-1 (FK-1). RT-PCR was used to measure fructokinase-1 (FK-1) mRNA levels in MCF-7 cells following growth in 2 mM glucose, 5.5 mM glucose, or 5.5 mM fructose for 24 h, and in two human breast cancers (BT 1 & 2), and matched adjacent normal breast tissue (NB 1 & 2) from the same individual. […] Human liver, and exclusion of template served as positive and negative controls.
The inventors used RT-PCR analysis and specific primer pairs (SEQ ID NO: 1 (3′[…]), SEQ ID NO: 2 (5′[…])) to examine fructokinase-1 (FK-1) mRNA levels in glucose- or fructose-treated breast cancer cells. […] Also examined were FK-1 mRNA levels in two surgically resected human breast cancers, and paired adjacent normal breast tissue from the same individual. FK-1 mRNA was detectable in both normal and tumor tissue.

In the case of `O=C(CO)[C@@H](O)[C@H](O)[C@H](O)CO` [fructose], the “mean serum fructose levels, peak” value in series [1] (30 minutes after two sodas) is 17 mM. Besides, the serum fructose levels result in series [1] (for the 2 hour duration of blood sampling) is “greater than 5 mM”. Further, the proliferative rates entry in series [2] and in series [3] was “higher proliferative rates” in each case. In series [4], the “FK-1 mRNA levels” value is listed as “highest FK-1 levels”.
